Measured values published in PubChem BioAssay (NCI).
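The concentration for 50% growth inhibition is given as GI50. At the TGI there is no net growth.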

What was measured:
Test in all cases: NCI tumour cell line growth inhibition, 384-well format
[1] = tested on: SNB-75 CNS
[2] = tested on: NCI-H322M lung
[3] = tested on: RPMI-8226 leukemia
[4] = tested on: SF-268 CNS
[5] = tested on: M14 melanoma
[6] = tested on: A549 NSCLC
[7] = tested on: CCRF-CEM leukemia
[8] = tested on: IGROV1 ovarian
[9] = tested on: UACC-257 melanoma
[10] = tested on: ACHN renal
[11] = tested on: MALME-3M melanoma
[12] = tested on: COLO 205 colon
[13] = tested on: UO-31 renal
[14] = tested on: EKVX NSCLC
[15] = tested on: SK-MEL-5 melanoma
[16] = tested on: MDA-MB-435 melanoma
[17] = tested on: U251 glioblastoma
[18] = tested on: MOLT-4 leukemia
[19] = tested on: A498 renal
[20] = tested on: LOX IMVI melanoma
[21] = tested on: HCC-2998 colon
[22] = tested on: HOP-92 NSCLC
[23] = tested on: MCF7 breast
[24] = tested on: OVCAR-5 ovarian
[25] = tested on: HT29 colon
[26] = tested on: SR leukemia
[27] = tested on: HOP-62 NSCLC
[28] = tested on: MDA-MB-231 breast
[29] = tested on: SF-539 CNS
[30] = tested on: SF-295 CNS
[31] = tested on: DU-145 prostate
[32] = tested on: OVCAR-4 ovarian
[33] = tested on: RXF 393 renal
[34] = tested on: NCI/ADR-RES ovarian
[35] = tested on: T-47D breast
[36] = tested on: UACC-62 melanoma
[37] = tested on: HCT-15 colon
[38] = tested on: SN12C renal
[39] = tested on: CAKI-1 renal
[40] = tested on: MDA-MB-468 breast
[41] = tested on: SK-MEL-28 melanoma
[42] = tested on: HL-60(TB) leukemia
[43] = tested on: NCI-H226 lung
[44] = tested on: BT-549 breast
[45] = tested on: KM12 colon
[46] = tested on: NCI-H23 lung
[47] = tested on: TK-10 renal
[48] = tested on: OVCAR-3 ovarian
[49] = tested on: 786-0 renal
[50] = tested on: SK-OV-3 ovarian
[51] = tested on: NCI-H522 lung
[52] = tested on: NCI-H460 NSCLC
[53] = tested on: HS 578T breast
[54] = tested on: K-562 leukemia
[55] = tested on: OVCAR-8 ovarian
[56] = tested on: PC-3 prostate
[57] = tested on: SW-620 colon
[58] = tested on: SNB-19 CNS

Work on `CNc1nc(-c2ccc3c(N)n[nH]c3c2)cc(N2C[C@@H](C(=O)NC3CCCCC3)CC[C@H]2C)n1` yielded a GI50 [1] of 1.19 µM, a TGI [1] of 13.4 µM and a GI50 [2] of 7.92 µM. The TGI [2] was 20.7 µM, the GI50 [3] was 0.471 µM and the TGI [3] was 3.49 µM. It also gave a GI50 [4] of 5.21 µM, a TGI [4] of 19.3 µM and a GI50 [5] of 1.7 µM. For the same molecule, the TGI [5] was 17.8 µM, the GI50 [6] was 3.78 µM and the TGI [6] was 16.2 µM. For the same molecule, the GI50 [7] was 1.04 µM, the TGI [7] was 3.12 µM and the GI50 [8] was 2.66 µM. The TGI [8] was 10.1 µM, the GI50 [9] was 1.62 µM and the TGI [9] was 10.5 µM. The GI50 [10] was 4.99 µM, the TGI [10] was 20.8 µM and the GI50 [11] was 0.157 µM. For the same molecule, the TGI [11] was 2.01 µM, the GI50 [12] was 1.56 µM and the TGI [12] was 11 µM. For the same molecule, the GI50 [13] was 5.39 µM, the TGI [13] was 19.4 µM and the GI50 [14] was 2.17 µM. The TGI [14] was 15 µM, the GI50 [15] was 0.798 µM and the TGI [15] was 2.81 µM. The GI50 [16] was 3.29 µM, the TGI [16] was 16.9 µM and the GI50 [17] was 10.4 µM. It also gave a TGI [17] of 22.4 µM, a GI50 [18] of 0.545 µM and a TGI [18] of 1.9 µM. For the same molecule, the GI50 [19] was 0.666 µM, the TGI [19] was 7.16 µM and the GI50 [20] was 4.8 µM. It also gave a TGI [20] of 17.4 µM, a GI50 [21] of 2.73 µM and a TGI [21] of 13.9 µM. The GI50 [22] was 0.99 µM, the TGI [22] was 6.78 µM and the GI50 [23] was 0.417 µM. It also gave a TGI [23] of 2.95 µM, a GI50 [24] of 1.64 µM and a TGI [24] of 6.52 µM. The GI50 [25] was 3.45 µM, the TGI [25] was 18 µM and the GI50 [26] was 0.475 µM. The TGI [26] was 8.48 µM, the GI50 [27] was 7.05 µM and the TGI [27] was 20.3 µM. The GI50 [28] was 1.91 µM, the TGI [28] was 16.7 µM and the GI50 [29] was 3.52 µM. It also gave a TGI [29] of 15.8 µM, a GI50 [30] of 4.81 µM and a TGI [30] of 18.3 µM. It also gave a GI50 [31] of 10.3 µM, a TGI [31] of 22.1 µM and a GI50 [32] of 2.58 µM. For the same molecule, the TGI [32] was 13.3 µM, the GI50 [33] was 2.97 µM and the TGI [33] was 13 µM. The GI50 [34] was 13.5 µM, the TGI [34] was 26.4 µM and the GI50 [35] was 0.0787 µM. It also gave a TGI [35] of 1.58 µM, a GI50 [36] of 1.93 µM and a TGI [36] of 13.5 µM. The GI50 [37] was 2.81 µM, the TGI [37] was 13.9 µM and the GI50 [38] was 1.9 µM. It also gave a TGI [38] of 15.5 µM, a GI50 [39] of 1.61 µM and a TGI [39] of 15.2 µM. For the same molecule, the GI50 [40] was 0.213 µM, the TGI [40] was 0.997 µM and the GI50 [41] was 1.54 µM. The TGI [41] was 12.5 µM, the GI50 [42] was 1.26 µM and the TGI [42] was 2.85 µM. For the same molecule, the GI50 [43] was 2.15 µM, the TGI [43] was 14 µM and the GI50 [44] was 1.72 µM. For the same molecule, the TGI [44] was 13.9 µM, the GI50 [45] was 10.1 µM and the TGI [45] was 21.8 µM. For the same molecule, the GI50 [46] was 1.86 µM, the TGI [46] was 13.2 µM and the GI50 [47] was 3.15 µM. For the same molecule, the TGI [47] was 16.4 µM, the GI50 [48] was 3.45 µM and the TGI [48] was 16.7 µM. The GI50 [49] was 3.25 µM, the TGI [49] was 13.8 µM and the GI50 [50] was 1.68 µM. It also gave a TGI [50] of 12.1 µM, a GI50 [51] of 6.52 µM and a TGI [51] of 19.9 µM. The GI50 [52] was 1.6 µM, the TGI [52] was 13.9 µM and the GI50 [53] was 1.33 µM. The TGI [53] was 6.42 µM, the GI50 [54] was 4.88 µM and the TGI [54] was 17.4 µM. It also gave a GI50 [55] of 9.7 µM, a TGI [55] of 21.6 µM and a GI50 [56] of 0.877 µM. It also gave a TGI [56] of 14.7 µM, a GI50 [57] of 11.6 µM and a TGI [57] of 24 µM. For the same molecule, the GI50 [58] was 7.1 µM and the TGI [58] was 20 µM.
